According to article PMC9403717, “Ruthenium complexes show potent inhibition of AKR1C1, AKR1C2, and AKR1C3 enzymes and anti-proliferative action against chemoresistant ovarian cancer cell line” (Frontiers in Pharmacology, 2022):
pKi: −log10 of the molar value. Where two headings read alike, the source gives them in different places.

Molecular target: T1, AKR1C3 (Homo sapiens, UniProt P42330)
T1 construct: made in house
T1 sequence (P42330 1-323): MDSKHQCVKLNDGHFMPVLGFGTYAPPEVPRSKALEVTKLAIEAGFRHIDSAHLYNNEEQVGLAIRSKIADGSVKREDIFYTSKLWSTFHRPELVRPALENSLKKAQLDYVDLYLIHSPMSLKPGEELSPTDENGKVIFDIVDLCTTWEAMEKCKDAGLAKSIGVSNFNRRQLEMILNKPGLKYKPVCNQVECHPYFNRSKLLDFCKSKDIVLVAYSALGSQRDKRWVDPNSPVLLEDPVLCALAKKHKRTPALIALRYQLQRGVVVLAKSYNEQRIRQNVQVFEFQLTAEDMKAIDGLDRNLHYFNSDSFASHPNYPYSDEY
Test: Inhibition of recombinant AKR1C3, oxidation of 1-acenaphthenol, progress-curve analysis
Type: biochemical
Settings: for k+3 / pKi / k+2 / inhibitory effect (in words) / irreversible inhibition (in words): AKR1C3; for k+3: irreversible binding of second inhibitor molecule to E-NADH-I; for fold less efficient inhibition of AKR1C3 compared to AKR1C1: from K3 values; for k+2: irreversible binding of second inhibitor molecule to E-NAD-I
Description: To investigate the effect of ten selected ruthenium compounds, we measured their effect on the time course of oxidation of the artificial substrate 1-acenaphtenol by recombinant enzymes AKR1C1–3. The recombinant enzymes AKR1C1–AKR1C3 were prepared as described previously ([Brozic et al., 2006]). Since the artificial substrate is racemic, the oxidation follows a double exponential pattern as described previously ([Traven et al., 2015]). The in vitro catalytic activity of AKR1C1–3 enzymes was determined spectrophotometrically by monitoring the increase in NADH absorbance at 340 nm (ε(λ340) = 6220 M^−1cm^−1) in the presence of the substrate 1-acenaphthenol. Enzymatic reactions (300 µL) were performed in 100 mm potassium phosphate buffer (pH 9.0), 0.005% (v/v) TritonX-114, 5% (v/v) DMSO, containing 2.3 mm NAD^+ and 1-acenaphthenol at final concentrations of 90, 180, and 250 µM for AKR1C1, AKR1C2, and AKR1C3, respectively. A total of 5 µL of a tested compound in DMSO was added to the reaction mixture. The final concentrations of the tested compounds ranged from 1 to 200 μM, depending on the extent of inhibition (Supplementary Data). The reaction was started by adding 15 µL of AKR1C1, AKR1C2, or AKR1C3 dissolved in 1x PBS (pH 7.3) at final concentrations of 0.11, 0.16, and 1.5 µM, respectively. AKR1C1–3 activity was measured at 37°C for 3 h without shaking using a PowerWave XS microplate reader (Biotek; Winooski, VT, United States). Measurements at seven different concentrations were performed in duplicates or triplicates (Supplementary Figures S2). To mechanistically explain all the obtained progress curves for each ruthenium complex on each enzyme by a common reaction scheme, we extended the originally proposed scheme so that the interaction of the ruthenium complex with apo- and holoenzyme was allowed to be rapid and followed by a slow irreversible association of a second ruthenium complex molecule. However, the affinity of the Ru complexes for the apoenzymes was much lower so this part was excluded from the proposed kinetic model for clarity (Figure 4).
FIGURE 4 Reaction scheme for the oxidation of 1-acenaphtenol by AKR1C1-3 and its inhibition by ruthenium compounds. E represents apoenzyme, E-NAD and E-NADH represent holoenzyme with bound NAD^+ and NADH, respectively. A and B are enantiomers of substrate 1-acenaphtenol. Symbols which include I (ruthenium compound) represent holoenzyme in complex with one or two inhibitor molecules. KNAD, KNADH, and K2-3 are equilibrium constants and k+2–3 are second-order association rate constants for the binding of the second inhibitor molecule to the enzyme. The progress curves for each enzyme in the presence of ruthenium complexes were analyzed by the WEB server ENZO (https://enzo.cmm.ki.si/) designed exactly for such purposes ([Bevc et al., 2011]).

[1] = reversible binding to holoenzyme E-NAD, read-out: K2
[2] = reversible binding to holoenzyme E-NADH, read-out: K3

| Compound | k+3 | pKi [1] | pKi [2] | fold less efficient inhibition of AKR1C3 compared to AKR1C1 | k+2 | inhibitory effect (in words) | irreversible inhibition (in words) |
| --- | --- | --- | --- | --- | --- | --- | --- |
| Cc1ccc(C(C)C)cc1.O=C(C=C([O][Ru][Cl])c1ccc(I)cc1)C(F)(F)F [Compound 1] | 0.9 M⁻¹ s⁻¹ | 3.98 | 6.79 | 7.6 fold |  |  |  |
| C1N2CN3CN1CP(C2)C3.Cc1ccc(C(C)C)cc1.F[P-](F)(F)(F)(F)F.O=C(C=C([O][Ru+])c1ccc(I)cc1)C(F)(F)F [Compound 2] |  | 3.94 |  |  | 5.3 M⁻¹ s⁻¹ |  |  |
| CN(C)c1ccc(C(=CC(=O)C(F)(F)F)[O][Ru][Cl])cc1.Cc1ccc(C(C)C)cc1 [Compound 3, (η^6-p-cymene)chlorido(4,4,4-trifluoro-1-(4-(dimethylamino)phenyl)-1,3-butandionato)ruthenium(II)] | 1.2 M⁻¹ s⁻¹ | 3.75 | 6.51 | 7.1 fold | 10.2 M⁻¹ s⁻¹ |  |  |
| Cc1ccc(C(C)C)cc1.O=C(C=C([O][Ru][Cl])c1ccc2c(c1)OCO2)C(F)(F)F [Compound 5] | 0.5 M⁻¹ s⁻¹ |  | 6.82 | 6.3 fold |  |  |  |
| C1N2CN3CN1CP(C2)C3.Cc1ccc(C(C)C)cc1.F[P-](F)(F)(F)(F)F.O=C(C=C([O][Ru+])c1ccc2c(c1)OCO2)C(F)(F)F [Compound 6] |  | 4.03 |  |  | 90 M⁻¹ s⁻¹ |  |  |
| Cc1ccc(C(C)C)cc1.[Cl-].[O-]c1c(I)cc(Cl)c2cccnc12.[Ru+2] [Compound 7] |  |  |  |  |  | Almost no inhibition |  |
| Cc1ccc(C(C)C)cc1.O=[N+]([O-])c1ccc([O][Ru][Cl])c2ncccc12 [Compound 9, (η ^6-p-Cymene) (nitroxolinato)chloridoruthenium (II)] |  | 3.36 |  |  |  | very weak inhibitory effect | virtually no irreversible inhibition |
| C1N2CN3CN1CP(C2)C3.Cc1ccc(C(C)C)cc1.F[P-](F)(F)(F)(F)F.O=[N+]([O-])c1ccc([O][Ru+])c2ncccc12 [Compound 10, (η ^6-p-cymene)(nitroxolinato)(pta)ruthenium(II) hexafluorophosphate] |  | 3.25 |  |  |  | Almost no inhibition | no irreversible inhibition |
